In patent US7947679B2 (priority 2002, dated 2011):

Key:
Botrytis cinerea = conditions: in vivo
Plasmopara viticola = conditions: in vivo
Phytophthora infestans = type: in vivo; conditions: 200 ppm, tomato leaf disks, preventive, assessed four days after inoculation

For `CC(C)Nc1nc2ncccc2c(Cl)c1-c1c(F)cc(F)cc1F`, the melting point was 202 °C.
For `CC(C)Nc1c(-c2c(F)cc(F)cc2F)c(Cl)nc2ncccc12` [3 (1), [2-chloro-3-(2,4,6-trifluorophenyl)-[1,8]naphthyridin-4-yl]-isopropylamine], the control of disease (Botrytis cinerea) was “greater than 60%” and the melting point was 193 °C.
In the case of `CC(C)Nc1c(-c2c(F)cc(F)cc2F)c(Cl)nc2ncc(Br)cc12` [3 (111), [6-bromo-2-chloro-3-(2,4,6-trifluorophenyl)-[1,8]naphthyridin-4-yl]-isopropylamine], the control of disease (Plasmopara viticola) is reported as “greater than 60%”.
For `Fc1cc(F)c(-c2c(Cl)nc3ncccc3c2N2CCOCC2)c(F)c1` [20 (1), 2-chloro-4-morpholin-4-yl-3-(2,4,6-trifluorophenyl)-[1,8]naphthyridine], the control of disease (Phytophthora infestans) was “greater than 60%”.
